Assay results taken from ChEMBL document CHEMBL1201862, “PubChem BioAssay data set” (2004).
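Compound exposure: 48 hours, 5 concentrations, 96-well plates. GI50 = concentration required for 50% inhibition of growth.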 Calls of active or inactive are those of the source. Rule as the data show it: active = GI50 up to about 1.1 µM and inactive = higher.

Assays:
Experiment in all cases: inhibition of tumour cell growth, NCI panel, 48 h
786-0 = tested on: 786-0
A498 = tested on: A498
A549 = tested on: A549
ACHN = tested on: ACHN
CAKI-1 = tested on: CAKI-1
CCRF-CEM = tested on: CCRF-CEM
COLO 205 = tested on: COLO 205
DLD-1 = tested on: DLD-1
DMS-114 = tested on: DMS-114
DMS-273 = tested on: DMS-273
EKVX = tested on: EKVX
HCC 2998 = tested on: HCC 2998
HCT-116 = tested on: HCT-116
HCT-15 = tested on: HCT-15
HL-60 = tested on: HL-60
HOP-18 = tested on: HOP-18
HOP-62 = tested on: HOP-62
HOP-92 = tested on: HOP-92
HT-29 = tested on: HT-29
IGROV-1 = tested on: IGROV-1
K562 = tested on: K562
KM-20L2 = tested on: KM-20L2
KM12 = tested on: KM12
LOX IMVI = tested on: LOX IMVI
LXFL 529 = tested on: LXFL 529
M14 = tested on: M14
M19-MEL = tested on: M19-MEL
MOLT-4 = tested on: MOLT-4
Malme-3M = tested on: Malme-3M
NCI-H226 = tested on: NCI-H226
NCI-H23 = tested on: NCI-H23
NCI-H460 = tested on: NCI-H460
NCI-H522 = tested on: NCI-H522
OVCAR-3 = tested on: OVCAR-3
OVCAR-4 = tested on: OVCAR-4
OVCAR-5 = tested on: OVCAR-5
OVCAR-8 = tested on: OVCAR-8
RPMI-8226 = tested on: RPMI-8226
SF-268 = tested on: SF-268
SF-295 = tested on: SF-295
SF-539 = tested on: SF-539
SK-MEL-28 = tested on: SK-MEL-28
SK-MEL-2 = tested on: SK-MEL-2
SK-MEL-5 = tested on: SK-MEL-5
SK-OV-3 = tested on: SK-OV-3
SN12C = tested on: SN12C
SNB-19 = tested on: SNB-19
SW-620 = tested on: SW-620
TK-10 = tested on: TK-10
U-251 = tested on: U-251
UACC-257 = tested on: UACC-257
UACC-62 = tested on: UACC-62
UO-31 = tested on: UO-31
XF498 = tested on: XF498
RXF 393 = tested on: RXF 393
SNB-75 = tested on: SNB-75
SNB-78 = tested on: SNB-78
SR = tested on: SR

N#C/C(=C\c1ccc(CP(=O)(O)O)cc1)C(N)=O
GI50 (786-0): > 100 µM (inactive) | GI50 (A498): > 100 µM (inactive) | GI50 (A549): > 100 µM (inactive) | GI50 (ACHN): > 100 µM (inactive) | GI50 (CAKI-1): > 100 µM (inactive) | GI50 (CCRF-CEM): > 100 µM (inactive) | GI50 (COLO 205): > 100 µM (inactive) | GI50 (DLD-1): > 100 µM (inactive) | GI50 (DMS-114): > 100 µM (inactive) | GI50 (DMS-273): > 100 µM (inactive) | GI50 (EKVX): > 100 µM (inactive) | GI50 (HCC 2998): > 100 µM (inactive) | GI50 (HCT-116): > 100 µM (inactive) | GI50 (HCT-15): > 100 µM | GI50 (HL-60): > 100 µM (inactive) | GI50 (HOP-18): > 100 µM (inactive) | GI50 (HOP-62): > 100 µM (inactive) | GI50 (HOP-92): > 100 µM (inactive) | GI50 (HT-29): > 100 µM (inactive) | GI50 (IGROV-1): > 100 µM (inactive) | GI50 (K562): > 100 µM (inactive) | GI50 (KM-20L2): > 100 µM (inactive) | GI50 (KM12): > 100 µM (inactive) | GI50 (LOX IMVI): > 100 µM (inactive) | GI50 (LXFL 529): > 100 µM (inactive) | GI50 (M14): > 100 µM (inactive) | GI50 (M19-MEL): > 100 µM (inactive) | GI50 (MOLT-4): > 100 µM (inactive) | GI50 (Malme-3M): > 100 µM (inactive) | GI50 (NCI-H226): > 100 µM (inactive) | GI50 (NCI-H23): > 100 µM (inactive) | GI50 (NCI-H460): > 100 µM (inactive) | GI50 (NCI-H522): > 100 µM (inactive) | GI50 (OVCAR-3): > 100 µM (inactive) | GI50 (OVCAR-4): > 100 µM (inactive) | GI50 (OVCAR-5): > 100 µM (inactive) | GI50 (OVCAR-8): > 100 µM (inactive) | GI50 (RPMI-8226): > 100 µM (inactive) | GI50 (SF-268): > 100 µM (inactive) | GI50 (SF-295): > 100 µM (inactive) | GI50 (SF-539): > 100 µM (inactive) | GI50 (SK-MEL-28): > 100 µM (inactive) | GI50 (SK-MEL-2): > 100 µM (inactive) | GI50 (SK-MEL-5): > 100 µM (inactive) | GI50 (SK-OV-3): > 100 µM (inactive) | GI50 (SN12C): > 100 µM (inactive) | GI50 (SNB-19): > 100 µM (inactive) | GI50 (SW-620): > 100 µM (inactive) | GI50 (TK-10): > 100 µM (inactive) | GI50 (U-251): > 100 µM (inactive) | GI50 (UACC-257): > 100 µM (inactive) | GI50 (UACC-62): > 100 µM (inactive) | GI50 (UO-31): > 100 µM (inactive) | GI50 (XF498): > 100 µM (inactive)

CN1N=C2NCCNC3=NN(C)/C(=N/CC/N=C/1S2)S3
GI50 (786-0): > 100 µM (inactive) | GI50 (A498): > 100 µM (inactive) | GI50 (A549): > 100 µM (inactive) | GI50 (ACHN): > 100 µM (inactive) | GI50 (CCRF-CEM): > 100 µM (inactive) | GI50 (COLO 205): > 100 µM (inactive) | GI50 (DLD-1): > 100 µM (inactive) | GI50 (DMS-273): > 100 µM (inactive) | GI50 (EKVX): > 100 µM (inactive) | GI50 (HCT-116): > 100 µM (inactive) | GI50 (HCT-15): > 100 µM | GI50 (HL-60): > 100 µM (inactive) | GI50 (HOP-18): > 100 µM (inactive) | GI50 (HOP-62): > 100 µM (inactive) | GI50 (HOP-92): > 100 µM (inactive) | GI50 (HT-29): > 100 µM (inactive) | GI50 (IGROV-1): > 100 µM (inactive) | GI50 (K562): > 100 µM (inactive) | GI50 (KM-20L2): > 100 µM (inactive) | GI50 (KM12): > 100 µM (inactive) | GI50 (LOX IMVI): > 100 µM (inactive) | GI50 (LXFL 529): > 100 µM (inactive) | GI50 (M14): > 100 µM (inactive) | GI50 (M19-MEL): > 100 µM (inactive) | GI50 (MOLT-4): > 100 µM (inactive) | GI50 (NCI-H226): > 100 µM (inactive) | GI50 (NCI-H23): > 100 µM (inactive) | GI50 (NCI-H460): > 100 µM (inactive) | GI50 (NCI-H522): > 100 µM (inactive) | GI50 (OVCAR-4): > 100 µM (inactive) | GI50 (OVCAR-5): > 100 µM (inactive) | GI50 (OVCAR-8): > 100 µM (inactive) | GI50 (RPMI-8226): > 100 µM (inactive) | GI50 (RXF 393): > 100 µM (inactive) | GI50 (SF-268): > 100 µM (inactive) | GI50 (SF-295): > 100 µM (inactive) | GI50 (SF-539): > 100 µM (inactive) | GI50 (SK-MEL-28): > 100 µM (inactive) | GI50 (SK-MEL-5): > 100 µM (inactive) | GI50 (SN12C): > 100 µM (inactive) | GI50 (SNB-19): > 100 µM (inactive) | GI50 (SNB-75): > 100 µM (inactive) | GI50 (SNB-78): > 100 µM (inactive) | GI50 (SR): > 100 µM (inactive) | GI50 (SW-620): > 100 µM (inactive) | GI50 (U-251): > 100 µM (inactive) | GI50 (UACC-257): > 100 µM (inactive) | GI50 (UACC-62): > 100 µM (inactive)

CC(=O)OC(CCC1(C)OC1COc1ccc(CCNC(=O)c2ccccc2)cc1)C(C)(C)OC(C)=O (stereo not given)
GI50 (786-0): > 100 µM (inactive) | GI50 (A549): 13.1 µM (inactive) | GI50 (ACHN): 5 µM (inactive) | GI50 (CAKI-1): 19 µM (inactive) | GI50 (CCRF-CEM): 7.18 µM (inactive) | GI50 (COLO 205): 19.5 µM (inactive) | GI50 (DLD-1): 45 µM (inactive) | GI50 (DMS-114): 0.325 µM (active) | GI50 (DMS-273): 11 µM (inactive) | GI50 (HCT-116): 0.794 µM (active) | GI50 (HCT-15): 13.9 µM | GI50 (HL-60): 25.7 µM (inactive) | GI50 (HOP-18): > 100 µM (inactive) | GI50 (HOP-62): 15.5 µM (inactive) | GI50 (HOP-92): 74.6 µM (inactive) | GI50 (HT-29): 17.4 µM (inactive) | GI50 (IGROV-1): 39.5 µM (inactive) | GI50 (K562): 0.752 µM (active) | GI50 (KM-20L2): 30.1 µM (inactive) | GI50 (KM12): 15.6 µM (inactive) | GI50 (LOX IMVI): 2.18 µM (inactive) | GI50 (LXFL 529): 10.3 µM (inactive) | GI50 (M14): 15.1 µM (inactive) | GI50 (M19-MEL): 18.4 µM (inactive) | GI50 (MOLT-4): 4.19 µM (inactive) | GI50 (Malme-3M): 15.3 µM (inactive) | GI50 (NCI-H226): > 100 µM (inactive) | GI50 (NCI-H23): 0.302 µM (active) | GI50 (NCI-H460): 13.1 µM (inactive) | GI50 (NCI-H522): 22.9 µM (inactive) | GI50 (OVCAR-3): 10.3 µM (inactive) | GI50 (OVCAR-4): 19.7 µM (inactive) | GI50 (OVCAR-5): > 100 µM (inactive) | GI50 (OVCAR-8): 15.7 µM (inactive) | GI50 (RPMI-8226): 18.6 µM (inactive) | GI50 (RXF 393): 16.2 µM (inactive) | GI50 (SF-268): 74.8 µM (inactive) | GI50 (SF-295): 11.4 µM (inactive) | GI50 (SF-539): > 100 µM (inactive) | GI50 (SK-MEL-28): 22 µM (inactive) | GI50 (SK-MEL-2): 17.3 µM (inactive) | GI50 (SK-MEL-5): 1.1 µM (active) | GI50 (SK-OV-3): > 100 µM (inactive) | GI50 (SN12C): > 100 µM (inactive) | GI50 (SNB-75): 32.6 µM (inactive) | GI50 (SNB-78): 36.2 µM (inactive) | GI50 (SR): 0.493 µM (active) | GI50 (SW-620): > 100 µM (inactive) | GI50 (TK-10): 49.3 µM (inactive) | GI50 (U-251): 37.3 µM (inactive) | GI50 (UACC-257): 2.13 µM (inactive) | GI50 (UACC-62): 14.3 µM (inactive) | GI50 (UO-31): 29.4 µM (inactive)
